Experimental data published in patent US9062124B2, “GIP-based mixed agonists for treatment of metabolic disorders and obesity” (priority 2008, dated 2015).
Where a SMILES comes first, the peptide text is derived from it. Bridges are numbered along the chain shown (N, C = ends). [ ]: non-standard residue; d: D form. Abu = CC[C@H](N)C(=O)O; Aib = CC(C)(N)C(=O)O

What was measured:
Assay type in all cases: cell-based
[1] = tested on: glucagon receptor, GLP-1 receptor or GIP receptor; test: Agonist profile across receptors assigned from the cAMP reporter assay data; settings: assigned from the in vitro EC50 data of Tables 1-4
glucagon receptor = molecular target: T1, glucagon receptor (Homo sapiens, UniProt P47871); test: cAMP synthesis functional assay (firefly luciferase reporter in HEK293 cells), glucagon receptor; settings: for EC50: Glucagon Receptor EC50, cAMP luciferase reporter assay as in Example 16
T1 construct: expressed in transfected cells; host or cells: HEK293

GIP receptor = molecular target: T2, GIP receptor (Homo sapiens, UniProt P48546); test: cAMP synthesis functional assay (firefly luciferase reporter in HEK293 cells), GIP receptor
T2 construct: expressed in transfected cells; host or cells: HEK293
T2 sequence (P48546 22-466): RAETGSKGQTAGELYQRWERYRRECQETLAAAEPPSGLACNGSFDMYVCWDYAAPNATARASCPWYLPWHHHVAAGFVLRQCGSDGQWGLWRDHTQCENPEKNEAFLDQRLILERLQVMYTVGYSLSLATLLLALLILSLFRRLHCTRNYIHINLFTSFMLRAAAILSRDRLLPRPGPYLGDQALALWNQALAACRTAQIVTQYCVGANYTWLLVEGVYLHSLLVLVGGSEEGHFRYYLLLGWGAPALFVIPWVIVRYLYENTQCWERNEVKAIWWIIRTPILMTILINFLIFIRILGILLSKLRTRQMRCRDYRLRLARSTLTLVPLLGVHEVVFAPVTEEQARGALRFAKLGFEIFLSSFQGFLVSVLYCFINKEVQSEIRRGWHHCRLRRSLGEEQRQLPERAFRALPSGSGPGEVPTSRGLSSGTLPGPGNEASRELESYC

GLP-1 receptor = molecular target: T3, GLP-1 receptor (Homo sapiens, UniProt P43220); test: cAMP synthesis functional assay (firefly luciferase reporter in HEK293 cells), GLP-1 receptor; settings: for EC50: GLP-1 Receptor EC50, cAMP luciferase reporter assay as in Example 16
T3 construct: expressed in transfected cells; host or cells: HEK293

[2] = relative to the standard (Std.) EC50 of the same run
[3] = GIP Receptor EC50, cAMP luciferase reporter assay as in Example 16
[4] = Table 1, relative to the native hormone of the indicated receptor

T1 sequence (P47871 26-477): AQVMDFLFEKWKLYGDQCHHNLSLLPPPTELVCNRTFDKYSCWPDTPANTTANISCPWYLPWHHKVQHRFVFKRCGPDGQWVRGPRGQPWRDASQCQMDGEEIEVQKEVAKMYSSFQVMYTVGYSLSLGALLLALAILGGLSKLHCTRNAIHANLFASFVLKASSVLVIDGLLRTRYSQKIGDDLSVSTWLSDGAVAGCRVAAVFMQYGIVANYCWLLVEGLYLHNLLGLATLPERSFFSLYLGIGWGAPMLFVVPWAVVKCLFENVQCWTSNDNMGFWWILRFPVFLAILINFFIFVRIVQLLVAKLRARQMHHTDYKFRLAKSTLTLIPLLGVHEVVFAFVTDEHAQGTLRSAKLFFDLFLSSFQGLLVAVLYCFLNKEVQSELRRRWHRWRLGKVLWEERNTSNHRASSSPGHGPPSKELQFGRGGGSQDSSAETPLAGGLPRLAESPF
T3 sequence (P43220 24-463, species assumed): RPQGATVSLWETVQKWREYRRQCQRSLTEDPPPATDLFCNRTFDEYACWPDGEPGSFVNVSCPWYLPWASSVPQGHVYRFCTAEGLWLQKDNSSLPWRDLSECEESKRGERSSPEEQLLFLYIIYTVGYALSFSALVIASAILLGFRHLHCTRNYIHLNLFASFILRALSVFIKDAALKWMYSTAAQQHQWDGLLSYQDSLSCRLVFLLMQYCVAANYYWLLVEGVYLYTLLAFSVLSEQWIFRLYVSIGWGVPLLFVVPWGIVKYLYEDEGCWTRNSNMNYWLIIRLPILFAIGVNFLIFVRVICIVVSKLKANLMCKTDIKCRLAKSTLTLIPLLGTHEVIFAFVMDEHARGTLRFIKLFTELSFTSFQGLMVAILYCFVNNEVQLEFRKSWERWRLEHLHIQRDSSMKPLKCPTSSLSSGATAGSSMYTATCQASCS

Row | SMILES | EC50 (GLP-1 receptor) [pM] | Glucagon Receptor relative activity (glucagon receptor; [4]) [%] | EC50 (GIP receptor; GIP Receptor EC50, nM, Table 1) [nM] | GIP Receptor relative activity (GIP receptor; [4]) [%] | GLP-1 Receptor relative activity (GLP-1 receptor; [4]) [%] | receptor activity profile (glucagon / GLP-1 / GIP agonism) [1] | Glucagon Receptor relative activity (glucagon receptor; [2]) [%] | EC50 (GIP receptor; [3]) [nM] | GIP Receptor relative activity (GIP receptor; [2]) [%] | GLP-1 Receptor relative activity (GLP-1 receptor; [2]) [%] | EC50 (glucagon receptor) [pM]
1 | CCCCCCCCCCCCCC(=O)NCCCC[C@H](NC(=O)[C@H](CO)NC(=O)[C@@H]1CCCN1C(=O)[C@@H]1CCCN1C(=O)[C@@H]1CCCN1C(=O)[C@H](C)NC(=O)CNC(=O)[C@H](CO)NC(=O)[C@H](CO)NC(=O)[C@@H]1CCCN1C(=O)CNC(=O)CNC(=O)[C@H](C)NC(=O)[C@H](CC(C)C)NC(=O)[C@H](CC(C)C)NC(=O)[C@H](Cc1c[nH]c2ccccc12)NC(=O)[C@H](CS)NC(=O)[C@@H](NC(=O)[C@H](Cc1ccccc1)NC(=O)[C@H](CCC(=O)O)NC(=O)C(C)(C)NC(=O)[C@H](C)NC(=O)[C@H](C)NC(=O)[C@H](CCC(N)=O)NC(=O)[C@H](CCCCN)NC(=O)[C@H](CC(=O)O)NC(=O)[C@H](CC(C)C)NC(=O)[C@H](Cc1ccc(O)cc1)NC(=O)[C@@H](NC(=O)[C@H](CO)NC(=O)[C@H](Cc1ccc(O)cc1)NC(=O)[C@H](CC(=O)O)NC(=O)[C@H](CO)NC(=O)[C@@H](NC(=O)[C@H](Cc1ccccc1)NC(=O)[C@@H](NC(=O)CNC(=O)[C@H](CCC(N)=O)NC(=O)C(C)(C)NC(=O)[C@@H](N)Cc1ccc(O)cc1)[C@@H](C)O)[C@@H](C)O)[C@@H](C)CC)C(C)C)C(N)=O [mt-286] | 22.5 | – | – | – | – | exhibited activity at the GIP, GLP-1, and glucagon receptors | 84.80 | 0.0159 | 68.55 | 52.00 | 61.2
2 | CC[C@H](NC(=O)[C@H](Cc1ccccc1)NC(=O)[C@@H](NC(=O)CNC(=O)[C@H](CCC(N)=O)NC(=O)C(C)(C)NC(=O)[C@@H](N)Cc1ccc(O)cc1)[C@@H](C)O)C(=O)N[C@@H](CO)C(=O)N[C@@H](CC(=O)O)C(=O)N[C@@H](Cc1ccc(O)cc1)C(=O)N[C@@H](CO)C(=O)N[C@H](C(=O)N[C@@H](Cc1ccc(O)cc1)C(=O)N[C@@H](CC(C)C)C(=O)N[C@@H](CC(=O)O)C(=O)N[C@@H](CCCCN)C(=O)N[C@@H](CCC(N)=O)C(=O)N[C@@H](C)C(=O)N[C@@H](C)C(=O)NC(C)(C)C(=O)N[C@@H](CCC(=O)O)C(=O)N[C@@H](Cc1ccccc1)C(=O)N[C@H](C(=O)N[C@@H](CC(N)=O)C(=O)N[C@@H](Cc1c[nH]c2ccccc12)C(=O)N[C@@H](CC(C)C)C(=O)N[C@@H](CC(C)C)C(=O)N[C@@H](C)C(=O)NCC(=O)NCC(=O)N1CCC[C@H]1C(=O)N[C@@H](CO)C(=O)N[C@@H](CO)C(=O)NCC(=O)N[C@@H](C)C(=O)N1CCC[C@H]1C(=O)N1CCC[C@H]1C(=O)N1CCC[C@H]1C(=O)N[C@@H](CO)C(=O)N[C@@H](CS)C(N)=O)C(C)C)[C@@H](C)CC [mt-325] (H-Y[Aib]QGTF[Abu]SDYSIYLDKQAA[Aib]EFVNWLLAGGPSSGAPPPSC-NH2; N-terminus assumed) | – | – | – | – | – | exhibited activity at the glucagon and GIP receptors, but not at the GLP-1 receptor | 86.45 | – | 111.43 | 0.83 | –

Second part, led by results:

Row | EC50 (GLP-1 receptor) [pM] | Glucagon Receptor relative activity (glucagon receptor; [4]) [%] | EC50 (GIP receptor; GIP Receptor EC50, nM, Table 1) [nM] | GIP Receptor relative activity (GIP receptor; [4]) [%] | GLP-1 Receptor relative activity (GLP-1 receptor; [4]) [%] | SMILES | receptor activity profile (glucagon / GLP-1 / GIP agonism) [1] | Glucagon Receptor relative activity (glucagon receptor; [2]) [%] | EC50 (GIP receptor; [3]) [nM] | GIP Receptor relative activity (GIP receptor; [2]) [%] | GLP-1 Receptor relative activity (GLP-1 receptor; [2]) [%] | EC50 (glucagon receptor) [pM]
3 | 30.3 | – | – | – | – | CC[C@H](C)[C@H](NC(=O)[C@H](CO)NC(=O)[C@H](Cc1ccc(O)cc1)NC(=O)[C@H](CC(=O)O)NC(=O)[C@H](CO)NC(=O)[C@@H](NC(=O)[C@H](Cc1ccccc1)NC(=O)[C@@H](NC(=O)CNC(=O)[C@H](CCC(N)=O)NC(=O)C(C)(C)NC(=O)[C@@H](N)Cc1ccc(O)cc1)[C@@H](C)O)[C@@H](C)O)C(=O)N[C@@H](Cc1ccc(O)cc1)C(=O)N[C@@H](CC(C)C)C(=O)N[C@@H](CC(=O)O)C(=O)N[C@@H](CCCCN)C(=O)N[C@@H](CCC(N)=O)C(=O)N[C@@H](C)C(=O)N[C@@H](C)C(=O)NC(C)(C)C(=O)N[C@@H](CCC(=O)O)C(=O)N[C@@H](Cc1ccccc1)C(=O)N[C@H](C(=O)N[C@@H](CS)C(=O)N[C@@H](Cc1c[nH]c2ccccc12)C(=O)N[C@@H](CC(C)C)C(=O)N[C@@H](CC(C)C)C(=O)N[C@@H](C)C(=O)NCC(N)=O)C(C)C [mt-257] (H-Y[Aib]QGTFTSDYSIYLDKQAA[Aib]EFVCWLLAG-NH2; N-terminus assumed) | exhibited activity at the GIP, GLP-1, and glucagon receptors | 32.53 | 0.0232 | 41.38 | 39.27 | –
4 | – | 109.93 | 0.164 | 16.46 | 56.52 | CC[C@H](C)[C@H](NC(=O)[C@H](CO)NC(=O)[C@H](Cc1ccc(O)cc1)NC(=O)[C@H](CC(=O)O)NC(=O)[C@H](CO)NC(=O)[C@@H](NC(=O)[C@H](Cc1ccccc1)NC(=O)[C@@H](NC(=O)CNC(=O)[C@H](CCC(N)=O)NC(=O)C(C)(C)NC(=O)[C@@H](N)Cc1ccc(O)cc1)[C@@H](C)O)[C@@H](C)O)C(=O)N[C@@H](Cc1ccc(O)cc1)C(=O)N[C@@H](CC(C)C)C(=O)N[C@@H](CC(=O)O)C(=O)N[C@H]1CCC(=O)NCCCC[C@@H](C(=O)N[C@@H](CCC(=O)O)C(=O)N[C@@H](Cc2ccccc2)C(=O)N[C@H](C(=O)N[C@@H](CC(N)=O)C(=O)N[C@@H](Cc2c[nH]c3ccccc23)C(=O)N[C@@H](CC(C)C)C(=O)N[C@@H](CC(C)C)C(=O)N[C@@H](C)C(=O)NCC(N)=O)C(C)C)NC(=O)[C@H](C)NC(=O)[C@H](C)NC(=O)[C@H](CCC(N)=O)NC1=O [mt-164] (H-Y[Aib]QGTFTSDYSIYLDEQAAKEFVNWLLAG-NH2; lactam 16-20; N-terminus assumed) | exemplary GLP-1/GIP/glucagon triagonist peptides | – | – | – | – | –
5 | 784 | – | – | – | – | CC[C@H](C)[C@H](NC(=O)[C@H](CO)NC(=O)[C@H](CCCCN)NC(=O)[C@H](CC(=O)O)NC(=O)[C@H](CO)NC(=O)[C@@H](NC(=O)[C@H](Cc1ccccc1)NC(=O)[C@@H](NC(=O)CNC(=O)[C@H](CCC(=O)O)NC(=O)C(C)(C)NC(=O)[C@@H](N)Cc1ccc(O)cc1)[C@@H](C)O)[C@@H](C)O)C(=O)N[C@@H](Cc1ccc(O)cc1)C(=O)N[C@@H](CC(C)C)C(=O)N[C@@H](CC(=O)O)C(=O)N[C@@H](CCCCN)C(=O)N[C@@H](CCC(N)=O)C(=O)N[C@@H](C)C(=O)N[C@@H](C)C(=O)NC(C)(C)C(=O)N[C@@H](CCC(=O)O)C(=O)N[C@@H](Cc1ccccc1)C(=O)N[C@H](C(=O)N[C@@H](CC(N)=O)C(=O)N[C@@H](Cc1c[nH]c2ccccc12)C(=O)N[C@@H](CC(C)C)C(=O)N[C@@H](CC(C)C)C(=O)N[C@@H](C)C(=O)NCC(N)=O)C(C)C [mt-285] (H-Y[Aib]EGTFTSDKSIYLDKQAA[Aib]EFVNWLLAG-NH2; N-terminus assumed) | exhibited activity at only the GIP receptor | 0.23 | – | 36.43 | 0.75 | 12600
